Measured values from patent US12459951B2, “Compounds that interact with RAS superfamily proteins for treatment of cancers, inflammatory diseases, rasopathies, and fibrotic disease” (SHY Therapeutics, LLC, priority 2022, dated 2025).
Where two headings read alike, the source gives them in different places.

Assays:
[1] = test system: Akt phosphorylation; assay: Akt Phosphorylation Assay (western blot), Panc-1; assay type: cell-based, human; conditions: at 10 μM, * = activation
Experimental: Protocol for Western Akt Cell-Based Phosphorylation Assay
This assay is referred to as the “Akt Phosphorylation Assay” throughout this application.
Human tumor-derived pancreatic cancer cell line Panc-1 (expressing KRas G12D mutant) was purchased from American Type Culture Collection and grown in complete DMEM-High Glucose supplemented with penicillin (100 U/mL), streptomycin (100 μg/mL), and 10% heat-inactivated FBS at 37° C. in a humidified incubator with 5% CO2.
Method 1: Cells were plated at 350000 cells/well density in a 12-well plate, allowed 3 hours to adhere to the plate, then starved in the appropriate medium in the presence of 0.5% FBS overnight. The small molecules to be tested were added to the cells in the final concentration of 10 μM in the presence of 0.3% DMSO for 6 hours incubation at 37° C. Next, cells were stimulated with 1.5 ng/ml EGF for 15 minutes then cells were lysed with lysis buffer containing 1% Triton X-100, EDTA, and Halt™ Protease & Phosphatase Inhibitor Cocktail (Thermo Scientific). Protein concentration was assessed by BCA protein assay (Thermo Scientific). Phosphorylation level of Akt was determined by western blot.
Method 2: Cells were plated at 350000 cells/well density in a 12-well plate in 10% FBS. The next day small molecules to be tested were added to the cells in the final concentration of 10 μM in the presence of 0.3% DMSO for 6 hours incubation at 37° C. For IC50 value determination, serial dilutions of compounds were added to cells under the same conditions. Next, cells were lysed with lysis buffer containing 1% Triton X-100, EDTA, and Halt™ Protease & Phosphatase Inhibitor Cocktail (Thermo Scientific). Protein concentration was assessed by BCA protein assay (Thermo Scientific). Phosphorylation level of Akt was determined by western blot.
Western blot protocol: Equal amounts of protein (15-50 μg) were separated by SDS-PAGE and transferred to nitrocellulose membranes (Invitrogen by Thermo Fisher Scientific). The membrane was stained with Ponceau S Stain (Boston BioProducts) to verify uniform protein loading. Membranes were blocked with 10% milk and phosphorylation levels of Akt were assessed by incubating overnight at 4° C. with anti-phospho-Akt (Ser473) antibody (Cell Signaling) followed by HRP-conjugated secondary antibody (Jackson Immunoresearch, West Grove, PA). Bands were incubated in Amersham ECL Prime Western Blotting Detection Reagent (GE Healthcare) and visualized using the ChemiDoc MP imaging system (Bio-Rad).

[2] = test system: MiaPaca-2 (expressing KRAS G12C mutant); assay: Proliferation Assay (Cell Viability Assay); assay type: cell-based; conditions: Homo sapiens, MIA PaCa-2
Experimental: Protocol for Proliferation Assay
This assay is referred to as the “Proliferation Assay” or “Cell Viability Assay” throughout this application.
Cell lines: Human tumor-derived cell lines were purchased from American Type Culture Collection. Human tumor-derived pancreatic cancer cell line MiaPaca-2 (expressing KRAS G12C mutant) and Panc-1 (expressing KRas G12D mutant), and Human non-small cell lung cancer (NSCLC) cell line A549 (expressing KRas G12S mutant) were grown in complete DMEM-High Glucose medium. Human colon cancer cell line SW-620 (expressing KRas G12V mutant) was grown in RPMI 1640 medium. All cell lines were supplemented with penicillin (100 U/mL), streptomycin (100 μg/mL), and 10% heat-inactivated FBS at 37° C. in a humidified incubator with 5% CO2.
(§1) Method: Cells were plated at 2000 to 5000 cells/well density in 96-wells plate and cultured overnight. Small molecules to be tested were added to the cells in the final concentration of 10 μM in the presence of 0.3% DMSO and 10% FBS and incubated for 2-4 days at 37° C. in a humidified incubator with 5% CO2. For IC50 value determination, serial dilutions of compounds were added to cells under the same conditions.
Assay: At the end of the incubation period, cell viability was determined using the CellTiter 96® Aqueous One Solution Cell Proliferation Assay according to manufacturer specifications (Promega, Madison, WI). The percentage of small molecules inhibition of cellular proliferation was calculated from raw data.
Cell lines: these Human tumor-derived cell lines were purchased from American Type Culture Collection. Human tumor-derived pancreatic cancer cell line MiaPaca-2 (expressing KRAS G12C mutant) and Panc-1 (expressing KRas G12D mutant), and Human non-small cell lung cancer (NSCLC) cell line A549 (expressing KRas G12S mutant), and Human melanoma cell line A375 (wild type Kras) were grown in complete DMEM-High Glucose medium. Human tumor-derived pancreatic cancer cell lines SU86.86 (expressing KRas G12D mutant), BxPC3 (expressing wild type K-Ras), and Human non-small cell lung cancer (NSCLC) cell lines NCI-H441 (expressing KRas G12S mutant), NCI-H1975 (expressing wild type KRas), NCI-H358 (expressing KRas G12C mutant), NCI-H1299 (expressing NRas Q61H mutant), and Human colon cancer cell line SW-620 (expressing KRas G12V mutant), Human triple negative breast cancer cell line HCC-1806 (expressing wild type KRas), and Human tumor-derived multiple myeloma cell line MM.1R (expressing wild type KRAS), were grown in RPMI 1640 medium. Human tumor-derived breast cancer cell line BT-549 (expressing wild type KRAS) was grown in RPMI 1640 medium in the presence of 11.8U insulin. Human tumor-derived pancreatic cancer cell line HPAF-II (expressing KRas G12D mutant), Human triple negative breast cancer cell line BT-20 (expressing wild type KRas), and Human colon cancer cell line LS123 (expressing KRas G12S mutant), were grown in EMEM medium. Human tumor-derived pancreatic cancer cell line CF-PAC1 (expressing KRas G12V mutant) was frown in IMDM medium, and Human colon cancer cell line HT29 (expressing wild type KRas) was grown in McCoy's 5A medium. The colon cancer cell line GP2d (expressing KRas G12D mutant) was purchased from MilliporeSigma and grown in DMEM-High Glucose medium. All cell lines were supplemented with penicillin (100 U/mL), streptomycin (100 μg/mL), and 10% heat-inactivated FBS at 37° C. in a humidified incubator with 5% CO2.
as §1, with “that were” for “to be”, “FBS,” for “FBS”

[3] = read-out: Proliferation in MiaPaca-2: IC50

SMILES	IC50 [2, 3]	IC50 ([2]; MiaPaca2, pancreatic, KRas G12C, read-out: Proliferation assay IC50)	IC50 ([2]; Proliferation assay, MiaPaca-2, read-out: MiaPaca-2 IC50 (nM) Pancreatic)	% inh of Akt phosphorylation in Panc-1 [1]
COc1cc(Nc2nc(-c3nccn3C)nn3cc(-c4ccn(C(C)C)n4)c(C)c23)ncn1 [Compound 6, 6-(1-Isopropyl-1H-pyrazol-3-yl)-N-(6-methoxypyrimidin-4-yl)-5-methyl-2-(1-methyl-1H-imidazol-2-yl)pyrrolo[2,1-f][1,2,4]triazin-4-amine]	150 to 500 nM	< 150 nM	10 to 50 nM	0 (0% inhibition)
Cc1c(-c2ccn(C3CC3)n2)cn2nc(-c3nccn3C)nc(Nc3cc(OCCO)ccn3)c12 [Compound 146, 2-((2-((6-(1-Cyclopropyl-1H-pyrazol-3-yl)-5-methyl-2-(1-methyl-1H-imidazol-2-yl)pyrrolo[2,1-f][1,2,4]triazin-4-yl)amino)pyridin-4-yl)oxy)ethan-1-ol]	150 to 500 nM			D* (85-100% activation)
Cc1c(-c2ccn(C)n2)cn2nc(-c3nccn3C)nc(Nc3cc(OC(F)F)ccn3)c12 [Compound 128, N-(4-(Difluoromethoxy)pyridin-2-yl)-5-methyl-2-(1-methyl-1H-imidazol-2-yl)-6-(1-methyl-1H-pyrazol-3-yl)pyrrolo[2,1-f][1,2,4]triazin-4-amine]	< 150 nM			D* (85-100% activation)
Cc1c(-c2ccn(C3CC3)n2)cn2nc(-c3nccn3C)nc(Nc3cc(OCC(F)(F)F)ccn3)c12 [Compound 140, 6-(1-Cyclopropyl-1H-pyrazol-3-yl)-5-methyl-2-(1-methyl-1H-imidazol-2-yl)-N-(4-(2,2,2-trifluoroethoxy)pyridin-2-yl)pyrrolo[2,1-f][1,2,4]triazin-4-amine]	< 150 nM			D* (85-100% activation)
Cc1c(-c2ccn(C)n2)cn2nc(-c3nccn3C)nc(Nc3n[nH]c(C4CC4)n3)c12 [Compound 113, N-(5-Cyclopropyl-1H-1,2,4-triazol-3-yl)-5-methyl-2-(1-methyl-1H-imidazol-2-yl)-6-(1-methyl-1H-pyrazol-3-yl)pyrrolo[2,1-f][1,2,4]triazin-4-amine]	< 150 nM			D* (85-100% activation)
COc1ccnc(Nc2nc(-c3nccn3C)nn3cc(-c4cccnc4)c(C)c23)c1 [Compound 157, N-(4-Methoxy-pyridin-2-yl)-5-methyl-2-(1-methyl-1H-imidazol-2-yl)-6-(pyridin-3-yl)pyrrolo[2,1-f][1,2,4]triazin-4-amine]	< 150 nM			D* (85-100% activation)
COc1cc(Nc2nc(-c3nccn3C)nn3cc(-c4ccn(C5CC5)n4)c(C)c23)ncn1 [Compound 135, 6-(1-Cyclopropyl-1H-pyrazol-3-yl)-N-(6-methoxypyrimidin-4-yl)-5-methyl-2-(1-methyl-1H-imidazol-2-yl)pyrrolo[2,1-f][1,2,4]triazin-4-amine]	< 150 nM			D* (85-100% activation)
Cc1c(-c2ccn(C3CC3)n2)cn2nc(-c3nccn3C)nc(Nc3cc(OCCN(C)C)ccn3)c12 [Compound 147, 6-(1-Cyclopropyl-1H-pyrazol-3-yl)-N-(4-(2-(dimethylamino)ethoxy)pyridin-2-yl)-5-methyl-2-(1-methyl-1H-imidazol-2-yl)pyrrolo[2,1-f][1,2,4]triazin-4-amine]	> 1000 nM			A* (1-25% activation)
Cc1c(-c2ccn(C)n2)cn2nc(-c3nccn3C)nc(Nc3ccncn3)c12.Cl [Compound 116, 5-Methyl-2-(1-methyl-1H-imidazol-2-yl)-6-(1-methyl-1H-pyrazol-3-yl)-N-(pyrimidin-4-yl)pyrrolo[2,1-f][1,2,4]triazin-4-amine hydrochloride salt]	< 150 nM			D* (85-100% activation)

More lines, main results first:

IC50 [2, 3]	IC50 ([2]; MiaPaca2, pancreatic, KRas G12C, read-out: Proliferation assay IC50)	IC50 ([2]; Proliferation assay, MiaPaca-2, read-out: MiaPaca-2 IC50 (nM) Pancreatic)	SMILES	% inh of Akt phosphorylation in Panc-1 [1]
< 150 nM			Cc1c(-c2ccn(C3CC3)n2)cn2nc(-c3nccn3C)nc(Nc3cc(OC(F)(F)F)ccn3)c12 [Compound 138, 6-(1-Cyclopropyl-1H-pyrazol-3-yl)-5-methyl-2-(1-methyl-1H-imidazol-2-yl)-N-(4-(trifluoromethoxy)pyridin-2-yl)pyrrolo[2,1-f][1,2,4]triazin-4-amine]	D* (85-100% activation)
< 150 nM			Cc1c(-c2ccn(C)n2)cn2nc(-c3nccn3C)nc(Nc3cc(OC(C)C)ccn3)c12 [Compound 136, N-(4-Isopropoxypyridin-2-yl)-5-methyl-2-(1-methyl-1H-imidazol-2-yl)-6-(1-methyl-1H-pyrazol-3-yl)pyrrolo[2,1-f][1,2,4]triazin-4-amine]	D* (85-100% activation)
< 150 nM			COc1cnc(Nc2nc(-c3nccn3C)nn3cc(-c4ccn(C)n4)c(C)c23)cn1 [Compound 110, N-(5-Methoxypyrazin-2-yl)-5-methyl-2-(1-methyl-1H-imidazol-2-yl)-6-(1-methyl-1H-pyrazol-3-yl)pyrrolo[2,1-f][1,2,4]triazin-4-amine]	C* (46-84% activation)
< 150 nM			Cc1c(-c2ccn(C(C)C)n2)cn2nc(-c3nccn3C)nc(Nc3cc(OCCO)ncn3)c12 [Compound 97, 2-((6-((6-(1-Isopropyl-1H-pyrazol-3-yl)-5-methyl-2-(1-methyl-1H-imidazol-2-yl)pyrrolo[2,1-f][1,2,4]triazin-4-yl)amino)pyrimidin-4-yl)oxy) ethan-1-ol]	D* (85-100% activation)
< 150 nM			COc1ccnc(Nc2nc(-c3nccn3C)nn3cc(-c4cnn(C(C)C)c4)c(C)c23)c1 [Compound 165, 6-(1-Isopropyl-1H-pyrazol-4-yl)-N-(4-methoxypyridin-2-yl)-5-methyl-2-(1-methyl-1H-imidazol-2-yl)pyrrolo[2,1-f][1,2,4]triazin-4-amine]	D* (85-100% activation)
